Drawing on PubChem BioAssay (NCI), this text covers TGI for 23 compounds.

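These data come from cells grown in 96-well plates and exposed to compound for 48 hours at five concentrations. TGI is the concentration that stops growth completely.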 Bounds are passed on as bounds.

Among the test systems are SNB-78 CNS; DLD-1 colon; DMS 114 small cell lung; XF 498 CNS; M19-MEL melanoma; RXF-631 renal; LXFL 529 NSCLC.
Assay in all cases: NCI anticancer screen, dose series, 48 h

Consider `CC(=O)OCC(=O)[C@@]1(O)CC[C@H]2[C@@H]3CCC4=CC(=O)[C@H](C)C[C@]4(C)[C@H]3[C@@H](O)C[C@@]21C`, for which the TGI with SNB-78 CNS, in the assay on DLD-1 colon, in the assay on DMS 114 small cell lung, in the assay on XF 498 CNS and in the assay on M19-MEL melanoma was more than 100 µM throughout.

`COc1cc(/C=C/C(=O)c2sc(-n3nc(-c4ccccc4)cc3-c3ccccc3)nc2C)ccc1O`: the TGI in the assay on SNB-78 CNS, with DLD-1 colon, in the assay on DMS 114 small cell lung, in the assay with M19-MEL melanoma and in the assay with RXF-631 renal was more than 100 µM in each case.

On to `C/C(=N\N)C(CN(C)C)C(c1ccccc1)c1c(O)c2ccccc2oc1=O` (centres undefined), for which the TGI in the assay with LXFL 529 NSCLC is more than 100 µM; with SNB-78 CNS, more than 100 µM; in the assay on DLD-1 colon, more than 100 µM; with DMS 114 small cell lung, more than 100 µM; with XF 498 CNS it was 99.8 µM; in the assay on M19-MEL melanoma, more than 100 µM. In the assay on RXF-631 renal, this compound returned a TGI of more than 100 µM.

Consider `COC(=O)c1[nH]c(=S)[nH]c(=O)c1-c1ccc(Cl)cc1`, for which the TGI in the assay with LXFL 529 NSCLC, with SNB-78 CNS, in the assay with DLD-1 colon, with DMS 114 small cell lung, with XF 498 CNS and with M19-MEL melanoma was more than 50 µM each time. The TGI in the assay with RXF-631 renal is more than 50 µM.

Regarding `COc1ccc(Br)c2c1CC(C(=O)O)CC2` (centres undefined), the TGI in the assay on LXFL 529 NSCLC, with SNB-78 CNS, in the assay on DLD-1 colon, with DMS 114 small cell lung and with XF 498 CNS was more than 100 µM each time.

Regarding `NC(=O)OCC(COc1ccc(Cl)cc1)OC(=O)c1ccccc1Cl` (centres undefined), the TGI in the assay with LXFL 529 NSCLC is 64.6 µM; in the assay with SNB-78 CNS it was more than 100 µM; in the assay with DLD-1 colon, 37.1 µM; in the assay on DMS 114 small cell lung it was 28.1 µM; in the assay on RXF-631 renal, 46 µM.

For `Cc1c2ccncc2cc2c1sc1ccncc12`, the TGI with LXFL 529 NSCLC worked out at 28.1 µM; in the assay on SNB-78 CNS it was 40.9 µM; in the assay with DLD-1 colon, 15 µM; in the assay with DMS 114 small cell lung, 21.6 µM; in the assay with XF 498 CNS, 29.8 µM; in the assay on M19-MEL melanoma, 16.6 µM. Moreover, the TGI in the assay with RXF-631 renal is more than 40.9 µM.

As to `COc1cc(NC(C)=O)c2[nH]c3c(C)cc(NC(C)=O)c(C)c3c2c1`, the TGI in the assay on LXFL 529 NSCLC, in the assay on DLD-1 colon, with DMS 114 small cell lung, in the assay with XF 498 CNS and in the assay with M19-MEL melanoma was more than 100 µM throughout.

Consider `NS(=O)(=O)c1cc2c(cc1Cl)NC(C(=O)c1cc(=O)c3ccc(O)cc3o1)=NS2(=O)=O`, for which the TGI in the assay with SNB-78 CNS, in the assay with DLD-1 colon, in the assay with DMS 114 small cell lung, with XF 498 CNS and in the assay on M19-MEL melanoma was more than 100 µM each time.

As for `c1ccc(Nc2nnc(CSc3nc(-c4ccccc4)c(-c4ccccc4)[nH]3)s2)cc1`, the TGI is 53.3 µM in the assay with LXFL 529 NSCLC; 79.9 µM with SNB-78 CNS; more than 100 µM with DLD-1 colon; 81 µM in the assay on DMS 114 small cell lung; 28.6 µM in the assay with M19-MEL melanoma.

Regarding `C=CCONC(=O)c1ccc(Cl)cc1`, the TGI in the assay on LXFL 529 NSCLC, in the assay with SNB-78 CNS, in the assay with DLD-1 colon, in the assay with DMS 114 small cell lung, in the assay with XF 498 CNS and with M19-MEL melanoma was more than 100 µM in each case. In the assay with RXF-631 renal, the TGI was more than 100 µM.

Consider `O=S(=O)([O-])[O-].[Fe+2].c1ccc(/C(=N\Nc2ccccn2)c2ccccn2)cc1`, for which the TGI with LXFL 529 NSCLC was 12.3 µM; in the assay on SNB-78 CNS, 12.1 µM; in the assay on DLD-1 colon it was 11.2 µM; in the assay with DMS 114 small cell lung, 3.73 µM; with M19-MEL melanoma, 4.25 µM.

Consider `CCOC(=O)CSc1ccnc(=O)[nH]1`, for which the TGI in the assay with LXFL 529 NSCLC, in the assay on SNB-78 CNS, in the assay on DMS 114 small cell lung, in the assay with XF 498 CNS and in the assay on M19-MEL melanoma was more than 100 µM in each case.

As to `CN(C(=O)C12C3C4C1C1C2C3C41I)C(C)(C)C` (centres undefined), the TGI in the assay on LXFL 529 NSCLC, with SNB-78 CNS, in the assay with DLD-1 colon, in the assay with DMS 114 small cell lung, in the assay on XF 498 CNS and with M19-MEL melanoma was more than 100 µM each time. The same compound yielded a TGI with RXF-631 renal of more than 100 µM.

With `COc1cc(/C=C\c2ccccn2)cc(OC)c1OC`, the TGI with LXFL 529 NSCLC, with SNB-78 CNS, in the assay with DLD-1 colon, in the assay with DMS 114 small cell lung, in the assay on XF 498 CNS and in the assay on M19-MEL melanoma was more than 100 µM in each case. Also, the TGI in the assay with RXF-631 renal is more than 100 µM.

Turning to `CC#COP(=O)(OCC)OCC`, the TGI in the assay on LXFL 529 NSCLC, with SNB-78 CNS, with DLD-1 colon, in the assay with DMS 114 small cell lung, in the assay with M19-MEL melanoma and with RXF-631 renal was more than 100 µM throughout.

Consider `Cn1c(O)c(C(=O)Nc2cccs2)c(=O)[nH]c1=S`, for which the TGI worked out at 40.8 µM with LXFL 529 NSCLC; 47.7 µM with SNB-78 CNS; 73.9 µM in the assay on DLD-1 colon; 35.9 µM with DMS 114 small cell lung; 44.3 µM in the assay on M19-MEL melanoma.

Regarding `NC(=S)NNC(=O)/C(=C/c1ccc(/C=C(\NC(=O)c2ccccc2)C(=O)NNC(N)=S)cc1)NC(=O)c1ccccc1`, the TGI in the assay with LXFL 529 NSCLC, in the assay on SNB-78 CNS, in the assay with DLD-1 colon, in the assay with DMS 114 small cell lung, in the assay on XF 498 CNS and with M19-MEL melanoma was more than 100 µM in each case.

Consider `CC(C)=CCCC1(C)C=Cc2c(c(C)cc3c2[nH]c2cc(O)ccc23)O1` (centres undefined), for which the TGI with LXFL 529 NSCLC, in the assay on DLD-1 colon, with DMS 114 small cell lung, in the assay on XF 498 CNS and in the assay with M19-MEL melanoma was more than 25 µM throughout.

With `CCCCCCn1c(SCC)c2ccccc2c1-c1nc(F)nc(F)n1`, the TGI in the assay with LXFL 529 NSCLC, in the assay on SNB-78 CNS, in the assay with DLD-1 colon, in the assay on DMS 114 small cell lung, in the assay on XF 498 CNS and in the assay with M19-MEL melanoma was more than 100 µM throughout.

In the case of `O=C(NO)c1ccc([N+](=O)[O-])cc1`, the TGI in the assay on LXFL 529 NSCLC is 83.8 µM; in the assay on DLD-1 colon, more than 100 µM; in the assay with DMS 114 small cell lung it was more than 100 µM; in the assay on XF 498 CNS, more than 100 µM; in the assay with M19-MEL melanoma, more than 100 µM.

In the case of `COc1ccc(/C=C(\Cl)c2ccc(OC)c(OC)c2)cc1OC`, the TGI with LXFL 529 NSCLC, with DLD-1 colon, in the assay on DMS 114 small cell lung and with M19-MEL melanoma was more than 100 µM each time.

As to `CC1CC2OC(=O)C3CC(O)CC(=C23)[C@@]12C[C@@H](c1ccoc1)OC2=O` (some centres undefined), the TGI in the assay with LXFL 529 NSCLC, in the assay on SNB-78 CNS, in the assay on DLD-1 colon, in the assay with XF 498 CNS and in the assay on M19-MEL melanoma was more than 100 µM in each case.
